Data: patent publication US7446122B2, “Substituted indole derivatives” (Cephalon, Inc., priority 2003, dated 2008)

Experiments:
COX-1 = target: T1, COX-1 (Homo sapiens, UniProt P23219); assay: Cox-1 assay: PGE2 formation in human platelets; type: cell-based; conditions: compounds are screened at 10 μM
T1 construct: endogenous in cells; host or cells: human platelets
Method: Test compound and/or vehicle is incubated with human platelets (10^8/ml) containing the phospholipase inhibitor MLnFP (100 μM) for 15 minutes at 37° C. Arachidonic acid (100 μM) is then added for a further 15 minute incubation period. The reaction is stopped by addition of 1 N HCl and neutralized with 1N NaOH. PGE2 levels in the supernatant are determined using the Amersham EIA kit. […]

[1] = target: T2, Cyclooxygenase-2 (human recombinant, expressed in Sf9 cell) (Homo sapiens, UniProt P35354); assay: Cox-2 assay: human recombinant cyclooxygenase-2, PGE2 by EIA; type: biochemical; conditions: human recombinant enzyme; compounds are screened at 10 μM
T2 construct: purchased Cayman 60122; host or cells: Sf9 cell
T2 sequence (P35354 18-604): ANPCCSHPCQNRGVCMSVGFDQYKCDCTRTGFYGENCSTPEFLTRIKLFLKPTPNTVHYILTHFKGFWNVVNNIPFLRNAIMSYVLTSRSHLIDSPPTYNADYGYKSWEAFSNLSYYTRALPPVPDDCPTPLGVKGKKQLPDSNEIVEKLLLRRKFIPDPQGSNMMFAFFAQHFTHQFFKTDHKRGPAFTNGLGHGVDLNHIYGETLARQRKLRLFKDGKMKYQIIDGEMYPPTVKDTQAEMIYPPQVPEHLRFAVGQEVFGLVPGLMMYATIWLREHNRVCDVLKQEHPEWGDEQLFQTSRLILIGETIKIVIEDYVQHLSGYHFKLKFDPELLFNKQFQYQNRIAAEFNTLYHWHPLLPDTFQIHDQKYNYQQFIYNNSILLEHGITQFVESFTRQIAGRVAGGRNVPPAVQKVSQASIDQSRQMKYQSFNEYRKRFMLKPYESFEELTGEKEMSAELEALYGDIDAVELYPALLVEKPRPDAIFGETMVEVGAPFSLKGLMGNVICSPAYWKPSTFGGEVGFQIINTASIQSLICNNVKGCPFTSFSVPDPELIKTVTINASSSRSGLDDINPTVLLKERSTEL
Method: Test compound and/or vehicle is pre-incubated with 0.11 U cyclooxygenase-2, 1 mM reduced glutathione (GSH), 500 μM phenol and 1 μM hematin for 15 minutes at 37° C. The reaction is initiated by addition of 0.3 μM arachidonic acid as substrate in Tris-HCl pH 7.7 and terminated after a 5 minute incubation at 37° C. by addition of 1N HCl. Following centrifugation, substrate conversion to PGE2 is measured by an Amersham EIA kit. Compounds are screened at 10 μM. […] J. Physiol.

[2] = system: prostate cancer cell line (LNCaP); assay: Cell cytotoxicity, MTT assay, LNCaP; type: cell-based; conditions: Homo sapiens, 72 h, three days incubation
Method: (§1) Normal prostate cells (PREC, Cambrex East Rutherford N.J.), prostate cancer cell line (LNCaP, ATCC), PBL (peripheral blood leukocytes-buffy coat San Diego Blood Bank), and primary CLL cells were incubated for one to two days in RPMI-1640 and 10% FBS (fetal bovine serum). They were plated in 96-well plates at 100,000 cells/well. Titrated concentrations of the compound to be tested were added to the culture medium. The cells were incubated three days at 37° C., 5% CO2. Viability of the cells was assayed by standard MTT assay. Each drug concentration was done in duplicate. MTT assay: 10 μl of 12 mM 3,[4,5-dimethylthiazol-2-yl]-2,5-diphenyltetrazolium bromide (MTT) (SIGMA) was added to each well. The cells were incubated at 37° C., 5% CO2 for 4 hours. 100 μl of 20% SDS, 0.015M HCl was added to each well and the cells were incubated overnight. The plates were read at absorbance 595 nm.

primary CLL cells = assay: Cell cytotoxicity, MTT assay, primary CLL cells; type: cell-based; conditions: 72 h, three days incubation
Method: as §1

[3] = system: PBL (peripheral blood leukocytes); assay: Cell cytotoxicity, MTT assay, PBL; type: cell-based; conditions: Leukocyte, 72 h, three days incubation
Method: as §1

[4] = system: Daudi human Burkitt Lymphoma derived tumors; assay: Daudi lymphoma murine xenograft model, efficacy; type: in vivo, male SCID mice; conditions: for mean tumor volume at termination of the study: daily Monday to Friday for two weeks, control 1583 mm^3
Method: Male SCID mice, 6-8 weeks of age, obtained from Simonsen Laboratories, Inc. (Gilroy, Calif.) were housed in groups of five.
The Daudi human Burkitt Lymphoma cells were obtained from American Type Culture Collection and were inoculated subcutaneously (1.0×10^7 cells/mouse) on the flanks of SCID mice. After the tumors reached approximately 100 mm^3 treatment was initiated.
Body weights and tumor volume of all mice were measured and recorded twice weekly. Tumors were measured in three dimensions and volume calculated using the formula: […]. Time for the tumors (days) to grow to 4× and 8× the initial volume at dosing were assessed. Study compounds were administered at 125 or 250 mg/kg/day (M-F) via oral gavage until the end of the study.
The efficacy of chlorambucil (2 and 3 mg/kg/d), (R-etodoalc) (400 mg/kg/d) and compound 47 (250 mg/kg/d), compound 26 (250 mg/kg/d), and compound 1 (125 mg/kg/d) against Daudi derived tumors in male SCID mice were studied. R-etodolac and compounds 1, 26 and 47 were prepared in sesame oil. Both chlorambucil (ip, 0.1 ml) and compounds of the invention (per os [p.o.], 0.31 ml) were dosed daily (Monday to Friday) for two weeks. SDX-101 (0.31 ml) was dosed p.o. daily until the end of the study. […] However, all treated mice recovered after Day 2 and maintained their weights. There was no body weight loss observed in other treatment groups. At termination of the study, the control group mean tumor volume was 1583 mm^3. The mean tumor volume of chlorambucil treated groups were 864 and 766 mm^3 with 2 and 3 mg/kg/d chlorambucil treatment, respectively. The mean tumor volume of R-etodolac and compounds 1, […] and 47 were 802, 996, 1011, and 1157 mm^3 with compounds 47, 36, 1 and R-etodolac treatment, respectively. […] At termination of the study, tumor samples along with liver, kidney, and spleen samples from each group were collected and fixed in 10% buffered formalin for histopathology.

T1 sequence (P23219 24-599): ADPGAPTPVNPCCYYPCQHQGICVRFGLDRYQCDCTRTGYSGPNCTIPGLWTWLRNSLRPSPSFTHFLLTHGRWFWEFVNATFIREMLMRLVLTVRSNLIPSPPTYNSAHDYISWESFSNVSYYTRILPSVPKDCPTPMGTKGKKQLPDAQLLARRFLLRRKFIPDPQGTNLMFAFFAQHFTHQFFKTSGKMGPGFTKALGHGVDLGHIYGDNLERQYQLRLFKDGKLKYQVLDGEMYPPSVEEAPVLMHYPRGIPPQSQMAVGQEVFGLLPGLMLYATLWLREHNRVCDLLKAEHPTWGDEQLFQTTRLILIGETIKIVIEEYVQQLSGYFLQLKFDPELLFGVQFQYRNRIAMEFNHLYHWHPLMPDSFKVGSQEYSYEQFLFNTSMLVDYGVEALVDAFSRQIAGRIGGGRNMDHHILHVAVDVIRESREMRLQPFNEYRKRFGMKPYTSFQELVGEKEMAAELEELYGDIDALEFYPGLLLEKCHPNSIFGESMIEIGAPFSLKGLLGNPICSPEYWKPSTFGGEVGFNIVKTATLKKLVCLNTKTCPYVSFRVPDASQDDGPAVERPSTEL

| Structure (SMILES) | IC50 [2] | also measured |
| --- | --- | --- |
| CCc1cc(-c2ccc(F)cc2)cc2c3c([nH]c12)C(CC)(CCO)OCC3 (stereo not drawn) [Compound 7] | 12 µM | inhibition at 10 µM (COX-1): 94%; inhibition at 10 µM [1]: 99% |
| CCC1(CCO)OCCc2c1[nH]c1ccc(Cl)cc21 (stereo not drawn) [Compound 41, 2-(6-CHLORO-1-ETHYL-1,3,4,9-TETRAHYDRO-PYRANO[3,4-b]INDOL-1-YL)-ETHANOL] | 51 µM | IC50 (primary CLL cells): 110 µM |
| CCC1(CCO)OCCc2c1[nH]c1cccc(Cl)c21 (stereo not drawn) [Compound 38, 2-(5-CHLORO-1-ETHYL-1,3,4,9-TETRAHYDRO-PYRANO[3,4-b]INDOL-1-YL)-ETHANOL] | 23 µM | IC50 [3]: 73 µM |
| CCC1(CCO)OCCc2c1[nH]c1c(C)cc(C)cc21 (stereo not drawn) [Compound 45] | 8 µM | IC50 [3]: 90 µM |
| CCC1(CCO)OCCc2c1[nH]c1ccc(F)cc21 (stereo not drawn) [Compound 40, 2-(1-ETHYL-6-FLUORO-1,3,4,9-TETRAHYDRO-PYRANO[3,4-b]INDOL-1-YL)-ETHANOL] | 80 µM | IC50 (primary CLL cells): 185 µM |
| CCOC(=O)CCc1cc(C(C)C)c2[nH]c3c(c2c1)CCOC3(CC)CCO (stereo not drawn) [Compound 55, ETHYL 3-(1-ETHYL-1,3,4,9-TETRAHYDRO-1-(2-HYDROXYETHYL)-8-ISOPROPYLPYRANO[3,4-B]INDOL-6-YL)PROPANOATE] | 18 µM |  |
| CCC1(CCO)OCCc2c1[nH]c1c(C(C)C)cc(CCCO)cc21 (stereo not drawn) [Compound 57, 3-(1-ETHYL-1,3,4,9-TETRAHYDRO-1-(2-HYDROXYETHYL)-8-ISOPROPYLPYRANO[3,4-B]INDOL-6-YL)PROPAN-1-OL] | 110 µM |  |
| CCc1cc(-c2ccc3c(c2)OCO3)cc2c3c([nH]c12)C(CC)(CCO)OCC3 (stereo not drawn) [Compound 9] | 10 µM | inhibition at 10 µM (COX-1): 88%; inhibition at 10 µM [1]: 90% |
| CCc1c(Br)ccc2c3c([nH]c12)C(CC)(CCO)OCC3 (stereo not drawn) [Compound 51, 2-(7-BROMO-1,8-DIETHYL-1,3,4,9-TETRAHYDROPYRANO[3,4-b]INDOL-1-YL)ETHANOL] | 10 µM |  |
| CCc1cccc2c3c([nH]c12)C(CCO)(c1ccccc1)OCC3 (stereo not drawn) [Compound 32, 2-(8-ETHYL-1-PHENYL-1,3,4,9-TETRAHYDRO-PYRANO[3,4-b]INDOL-1-YL)-ETHANOL] | 15 µM | IC50 (primary CLL cells): 250 µM |
| CCc1cccc2c3c([nH]c12)C(CC)(CC(=O)N(C)C)OCC3 (stereo not drawn) [Compound 48] | 60 µM | IC50 (primary CLL cells): 240 µM |
| CCc1cccc2c3c([nH]c12)C(CC)(CC(=O)NC)OCC3 (stereo not drawn) [Compound 33] | 132 µM | IC50 (primary CLL cells): 98 µM |
| CCC1(CCO)OCCc2c1[nH]c1c(F)cccc21 (stereo not drawn) [Compound 26, 2-(1-ETHYL-8-FLUORO-1,3,4,9-TETRAHYDRO-PYRANO[3,4-b]INDOL-1-YL)-ETHANOL] | 95 µM |  |
| CCC1(CCO)OCCc2c1[nH]c1cc(Cl)ccc21 (stereo not drawn) [Compound 44, 2-(7-CHLORO-1-ETHYL-1,3,4,9-TETRAHYDRO-PYRANO[3,4-b]INDOL-1-YL)-ETHANOL] | 60 µM |  |
| CCCC1(CCO)OCCc2c1[nH]c1c(CC)cccc21 (stereo not drawn) [Compound 30, 2-(8-ETHYL-1-PROPYL-1,3,4,9-TETRAHYDRO-PYRANO[3,4-b]INDOL-1-YL)-ETHANOL] | 100 µM |  |
| CCC1(CCO)OCCc2c1[nH]c1c(Br)cccc21 (stereo not drawn) [Compound 28, 2-(8-BROMO-1-ETHYL-1,3,4,9-TETRAHYDRO-PYRANO[3,4-b]INDOL-1-YL)-ETHANOL] | 25 µM |  |
| O=C(O)CCCc1ccc(N(CCCl)CCCl)cc1 [Chlorambucil, chlorambucil, reference compound] |  | mean tumor volume at termination of the study ([4]; chlorambucil 2 mg/kg/d ip): 864 mm^3; mean tumor volume at termination of the study ([4]; chlorambucil 3 mg/kg/d ip): 766 mm^3; 4× Growth ([4]; time for the tumors to grow to 4× the initial volume at dosing, control 8.9 d): 16 days; 8× Growth ([4]; time for the tumors to grow to 8× the initial volume at dosing, control 14.5 d): 21 days |
| CCc1cc(-c2cc3ccccc3s2)cc2c3c([nH]c12)C(CC)(CCO)OCC3 (stereo not drawn) [Compound 52] | 9 µM | inhibition at 10 µM (COX-1): 78%; inhibition at 10 µM [1]: 97% |
| CCc1cc(-c2ccc(C)cc2)cc2c3c([nH]c12)C(CC)(CCO)OCC3 (stereo not drawn) [Compound 53] | 11 µM | inhibition at 10 µM (COX-1): 90%; inhibition at 10 µM [1]: 96% |
| CCc1cccc2c3c([nH]c12)C1(CCC(CO)CC1)OCC3 (stereo not drawn) [Compound 34, [8′-ETHYL-4′,9′-DIHYDRO-3′H-SPIRO(CYCLOHEXANE-1,1′-PYRANO[3,4-b]INDOL)-4-YL]-METHANOL] | 20 µM |  |
| CCC1(CCO)OCCc2c1[nH]c1ccccc21 (stereo not drawn) [Compound 22, (1-ETHYL-1,3,4,9-TETRAHYDRO-PYRANO[3,4-b]INDOL-1-YL)-ETHANOL] | 163 µM |  |
| CCc1cccc2c3c([nH]c12)C(CCO)(C(C)C)OCC3 (stereo not drawn) [Compound 31, 2-(8-ETHYL-1-ISOPROPYL-1,3,4,9-TETRAHYDRO-PYRANO[3,4-b]INDOL-1-YL)-ETHANOL] | 37 µM | IC50 (primary CLL cells): 244 µM |
| CCC1(CCO)OCCc2c1[nH]c1c(C(F)(F)F)cccc21 (stereo not drawn) [Compound 37, 2-(1-ETHYL-8-TRIFLUOROMETHYL-1,3,4,9-TETRAHYDRO-PYRANO[3,4-b]INDOL-1-YL)-ETHANOL] | 60 µM |  |
| CCC1(CCO)OCCc2c1[nH]c1ccc(OC)cc21 (stereo not drawn) [Compound 23, 2-(1-ETHYL-6-METHOXY-1,3,4,9-TETRAHYDRO-PYRANO[3,4-b]INDOL-1-YL)-ETHANOL] | 70 µM |  |
| CCC1(CCO)OCCc2c1[nH]c1c(C(C)C)cc(Br)cc21 (stereo not drawn) [Compound 54, 2-(6-BROMO-1-ETHYL-1,3,4,9-TETRAHYDRO-8-ISOPROPYLPYRANO[3,4-b]INDOL-1-yl)ETHANOL] | 7 µM |  |
| CCC1(CCO)OCCc2c1[nH]c1c(C(C)C)cc(CCC(=O)O)cc21 (stereo not drawn) [Compound 56, 3-(1-ETHYL-1,3,4,9-TETRAHYDRO-1-(2-HYDROXYETHYL)-8-ISOPROPYLPYRANO[3,4-b]INDOL-6-YL)PROPANOIC ACID] | 235 µM |  |
| CCC1(CCO)OCCc2c1[nH]c1cccc(F)c21 (stereo not drawn) [Compound 39, 2-(1-ETHYL-5-FLUORO-1,3,4,9-TETRAHYDRO-PYRANO[3,4-b]INDOL-1-YL)-ETHANOL] | 46 µM | IC50 [3]: 120 µM |
| CCC1(CCO)OCCc2c1[nH]c1cc(F)ccc21 (stereo not drawn) [Compound 43, 2-(1-ETHYL-7-FLUORO-1,3,4,9-TETRAHYDRO-PYRANO[3,4-b]INDOL-1-YL)-ETHANOL] | 77 µM |  |
